Measurements from patent US12187705B2, “Heteroaryl-triazole and heteroaryl-tetrazole compounds as pesticides” (Bayer Aktiengesellschaft, priority 2018, dated 2025).

Legend:
Assay type in all cases: in vivo
Ctenocephalides felis [1] = assay: Ctenocephalides felis in-vitro contact test adult cat flea; settings: 5 μg/cm^2 (=500 g/ha), after 48 hours; for pest or weed control at 5 µg/cm2, 5 µg/cm2: Ctenocephalides felis, read-out: efficacy (fleas dead or moribund)
In short: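 Compound in acetone was coated on glass tube walls, giving 5 μg/cm^2 at 900 ppm. 5-10 adult cat fleas were held at room temperature for 48 h, then heat-challenged at 45-50° C. Fleas immotile or uncoordinated were scored dead/moribund, expressed as % efficacy.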

Boophilus microplus = Boophilus microplus injection test; settings: 20 μg/animal, egg deposition after 7 days; for pest or weed control at 0.02 mg: Rhipicephalus microplus, 168 h, read-out: efficacy (infertile eggs)
In short: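 Engorged adult female ticks, five per dose, received 1 μl of compound in DMSO injected into the abdomen and were kept in a climate chamber. Fertile egg deposition was checked after 7 days, with eggs of unclear fertility held until hatching at about 42 days. Efficacy 100% = all eggs infertile, 0% = all fertile.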

Nezara viridula = Nezara viridula spray test; settings: in Hordeum vulgare, 96 h
In short: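 Barley plants infested with stink bug larvae were sprayed with compound diluted in water containing 1000 ppm emulsifier. Mortality (%) was scored after 4 days, 100% meaning all bugs killed.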

Ctenocephalides felis [2] = assay: Ctenocephalides felis oral test; settings: Ctenocephalides felis, in Bos taurus, po, 48 h
In short: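 About 20 adult unfed fleas fed through parafilm on cattle blood containing compound (DMSO concentrate diluted in blood); blood held at 37° C., fleas at room temperature. Mortality in % scored after 2 days (100% = all killed).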

Rhipicephalus sanguineus = Rhipicephalus sanguineus in-vitro contact test with adult brown dog ticks; settings: 5 μg/cm^2 (=500 g/ha), after 48 hours; for pest or weed control at 5 µg/cm2, 5 µg/cm2: Rhipicephalus sanguineus, read-out: efficacy (ticks dead or moribund)
Method: Rhipicephalus sanguineus—In-Vitro Contact Test with Adult Brown Dog Ticks
9 mg compound is solved in 1 ml acetone and diluted with acetone to the desired concentration. 250 μl of the test solution is filled in 25 ml glass test tubes and homogeneously distributed on the inner walls by rotation and tilting on a shaking device (2 h at 30 rpm). With a compound concentration of 900 ppm, an inner surface of 44.7 cm^2 and a homogeneous distribution, a dose of 5 μg/cm^2 is achieved.
After the solvent has evaporated, each test tube is filled with 5-10 adult brown dog ticks (Rhipicephalus sanguineus), closed with a perforated lid and incubated in a lying position at room temperature and relative humidity. After 48 hours efficacy is determined. The ticks are patted on the ground of the tubes and are incubated on a heating plate at 45-50° C. for at most 5 minutes. Immotile or uncoordinated moving ticks, which are not able to escape the heat by climbing upwards, are marked as dead or moribund.
An efficacy of 100% means all ticks are dead or moribund; 0% means no ticks are dead or moribund.

Diabrotica balteata = Diabrotica balteata spray test; settings: 160 μg/well, wheat seeds, after 7 days; for pest or weed control at 160 µg/disc, 160 µg/well: Diabrotica balteata, 168 h, read-out: efficacy (seedlings grown)
In short: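 Wheat seeds germinated 1 day on agar were sprayed with compound diluted in water with 1000 ppm emulsifier, then infested with 10-20 Diabrotica balteata larvae. Efficacy in % scored after 7 days: 100% = seedlings grown as untreated, uninfected control; 0% = no seedlings grown.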

Nilaparvata lugens = Nilaparvata lugens spray test; settings: for mortality at 500 g/ha: Nilaparvata lugens, in Oryza sativa, 96 h
In short: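 Rice plants sprayed with compound diluted in water containing 1000 ppm emulsifier, then infested with brown planthopper. Mortality (%) scored after 4 days, 100% meaning all insects killed.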

Phaedon cochleariae = Phaedon cochleariae spray test; settings: foliar, 168 h, Chinese cabbage leaf disks, after 7 days
Method: Phaedon cochleariae—Spray Test
To produce a suitable preparation of active compound, 1 part by weight of active compound is mixed with the stated amount of solvents and is diluted with water, containing an emulsifier concentration of 1000 ppm, to the desired concentration. Further test concentrations are prepared by dilution with emulsifier containing water.
Chinese cabbage (Brassica pekinensis) leaf disks are sprayed with a preparation of the active ingredient of the desired concentration. Once dry, the leaf disks are infested with mustard beetle larvae (Phaedon cochleariae).
After 7 days mortality in % is determined. 100% means all beetle larvae have been killed and 0% means none of the beetle larvae have been killed.

Myzus persicae [3] = assay: Myzus persicae oral test; settings: 120 h
In short: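 Feeding test: compound diluted in water was combined with IPL41 insect medium (33%+15% sugar) under a parafilm seal. A mixed population of green peach aphids fed through the membrane. Mortality (%) was scored after 5 days.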

Spodoptera frugiperda = Spodoptera frugiperda spray test; settings: in Zea mays, 168 h
In short: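 Caterpillars are placed on sprayed, dried maize leaf sections. Sprays contain compound diluted in water with emulsifier at 1000 ppm; mortality in % is determined 7 days later.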

[4] = tested on: Musca domestica strain WHO-N; assay: Musca domestica test (MUSCDO surface treatment & contact assay); settings: 24 hours after contact, read-out: efficacy (mortality); for mortality at 20 mg/m2: surface concentration 20 mg/m^2, 30 minutes exposure
Method: Musca domestica Test (MUSCDO Surface Treatment & Contact Assay)
Solvent: Aceton+2000 ppm rapeseed oil methyl ester (RME)
In order to produce a sufficient, active ingredient containing solution it is necessary to solve the test-compound in the solvent-mix (Acetone at 2 mg/ml/RME 2000 ppm). This solution is pipetted onto a glazed tile and after evaporation of the Acetone, adult flies of the species Musca domestica strain WHO-N are placed onto the dried surface. The exposure time is 30 minutes.
Mortality in percent (%) is determined 24 hours after contact to the treated surface. 100% mortality means that all test-insects are dead, whereas 0% means that not a single insect died.

[5] = tested on: Aedes aegypti strain MONHEIM; assay: Aedes aegypti test (AEDSAE surface treatment & contact assay); settings: 24 hours after contact, read-out: efficacy (mortality); for mortality at 4 mg/m2: surface concentration 4 mg/m^2, 30 minutes exposure; for mortality at 20 mg/m2: surface concentration 20 mg/m^2, 30 minutes exposure
In short: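 Compound dissolved in acetone (2 mg/ml) with 2000 ppm rapeseed oil methyl ester and dried onto a glazed tile. Adult mosquitoes held on the treated surface for 30 minutes exposure. Percent mortality scored 24 hours after contact.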

[6] = tested on: Culex quinquefasciatus strain P00; assay: Culex quinquefasciatus test (CULXFA surface treatment & contact assay); settings: 24 hours after contact, read-out: efficacy (mortality); for mortality at 4 mg/m2: surface concentration 4 mg/m^2, 30 minutes exposure; for mortality at 20 mg/m2: surface concentration 20 mg/m^2, 30 minutes exposure
In short: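 Compound dissolved in acetone (2 mg/ml) with 2000 ppm rapeseed oil methyl ester, applied to glazed tile and dried. Adult strain P00 mosquitoes exposed to the surface for 30 minutes. Percent mortality scored 24 hours after contact.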

[7] = tested on: Anopheles funestus strain FUMOZ-R; assay: Anopheles funestus test (ANPHFU surface treatment & contact assay); settings: 24 hours after contact, read-out: efficacy (mortality); for mortality at 4 mg/m2: surface concentration 4 mg/m^2, 30 minutes exposure; for mortality at 20 mg/m2: surface concentration 20 mg/m^2, 30 minutes exposure
In short: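 Compound dissolved in acetone (2 mg/ml) with 2000 ppm rapeseed oil methyl ester, dried onto glazed tile; adult Anopheles funestus FUMOZ-R exposed for 30 minutes. Percent mortality scored 24 hours after contact.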

Myzus persicae [8] = assay: Myzus persicae spray test; settings: in Brassica rapa, foliar, 120 h
In short: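 Chinese cabbage leaf disks infested with all aphid instars were sprayed with compound diluted in water containing emulsifier (1000 ppm). Mortality (%) was scored after 5 days, 100% meaning all aphids killed.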

Compound	pest or weed control at 5 µg/cm2, 5 µg/cm2 (Ctenocephalides felis [1]) [%]	pest or weed control at 0.02 mg (Boophilus microplus) [%]	mortality at 500 g/ha (Nezara viridula) [%]	mortality at 100 ppm (Ctenocephalides felis [2]) [%]	pest or weed control at 5 µg/cm2, 5 µg/cm2 (Rhipicephalus sanguineus) [%]	pest or weed control at 160 µg/disc, 160 µg/well (Diabrotica balteata) [%]	mortality at 500 g/ha (Nilaparvata lugens) [%]	mortality at 500 g/ha (Phaedon cochleariae) [%]	mortality at 4 ppm (Myzus persicae [3]) [%]	mortality at 20 ppm (Myzus persicae [3]) [%]	mortality at 500 g/ha (Spodoptera frugiperda) [%]	mortality at 20 mg/m2 [4] [%]	mortality at 4 mg/m2 [5] [%]	mortality at 20 mg/m2 [5] [%]	mortality at 20 mg/m2 [6] [%]	also measured
CC(c1ncnn1-c1ncccn1)N(CC1CC1)C(=O)c1cncc(S(C)(=O)=O)c1 (stereo not drawn) [Example I-002]	100	100	100	100	80	–	–	–	–	–	–	–	–	–	–	–
CC(c1ncnn1-c1ncccn1)N(CC1CC1)C(=O)c1cc(Cl)cc(S(C)(=O)=O)c1 (stereo not drawn) [Example I-003, 3-chloro-N-(cyclopropylmethyl)-5-(methylsulfonyl)-N-{1-[1-(pyrimidin-2-yl)-1H-1,2,4-triazol-5-yl]ethyl}benzamide]	100	100	100	100	100	100	100	100	90	100	–	–	–	–	–	–
CC(c1ncnn1-c1ncccn1)N(CC1CC1)C(=O)c1cc(C(F)(F)F)cc(Cl)c1F (stereo not drawn) [Example I-004]	–	–	100	100	80	100	100	100	–	100	83	–	–	–	–	–
CC(c1ncnn1-c1ncccn1)N(CC1CC1)C(=O)c1cc(Cl)cc(S(=O)(=O)C(F)(F)F)c1 (stereo not drawn) [Example I-019]	100	100	100	100	–	100	100	100	100	100	100	80 to 100	80 to 100	90 to 100	80 to 100	mortality at 4 mg/m2 [6]: 80 to 100%
CC(c1ncnn1-c1ncccn1)N(CC1CC1)C(=O)c1csc(Cl)c1 (stereo not drawn) [Example I-021]	100	80	–	100	80	–	–	–	–	–	–	–	–	–	–	–
CC(c1ncnn1-c1ncccn1)N(CC1CC1)C(=O)c1cc(C(F)(F)F)n(C)n1 (stereo not drawn) [Example I-025]	100	100	100	100	–	100	100	83	–	100	–	80 to 100	–	90 to 100	80 to 100	mortality at 4 mg/m2 [7]: 85 to 100%; mortality at 20 mg/m2 [7]: 85 to 100%
CC(NC(=O)c1cc(Cl)cc(S(C)(=O)=O)c1)c1ncnn1-c1ncccn1 (stereo not drawn) [Example I-037]	–	–	–	–	–	–	–	–	–	–	–	–	–	–	–	efficacy (fleas dead or moribund) (Ctenocephalides felis [1]): 100%; efficacy (infertile eggs) (Boophilus microplus): 100%; efficacy (seedlings grown) (Diabrotica balteata): 100%; efficacy (ticks dead or moribund) (Rhipicephalus sanguineus): 80%
CC(NC(=O)c1cc(F)cc(C2CC2)c1)c1ncnn1-c1ncccn1 (stereo not drawn) [Example I-045]	–	–	–	–	–	–	–	–	–	–	–	–	–	–	–	efficacy (fleas dead or moribund) (Ctenocephalides felis [1]): 100%; efficacy (infertile eggs) (Boophilus microplus): 100%; efficacy (seedlings grown) (Diabrotica balteata): 100%; mortality (Nilaparvata lugens; 500 g/ha, rice plants, after 4 days): 90%; efficacy (ticks dead or moribund) (Rhipicephalus sanguineus): 100%
C[C@@H](NC(=O)c1cc(OC(F)(F)F)cc(C2CC2)c1)c1ncnn1-c1ccc(C#N)cn1 [Example I-053]	–	–	–	100	100	100	–	–	–	–	100	80 to 100	80 to 100	90 to 100	–	mortality at 4 mg/m2 ([4]; surface concentration 4 mg/m^2, 30 minutes exposure): 80 to 100%
CSc1cc(Cl)cc(C(=O)N[C@H](C)c2ncnn2-c2ccc(C#N)cn2)c1 [Example I-066]	100	–	100	100	80	100	–	–	90	–	100	80 to 100	80 to 100	90 to 100	80 to 100	mortality at 4 mg/m2 [7]: 85 to 100%; mortality at 20 mg/m2 [7]: 85 to 100%; mortality at 500 g/ha (Myzus persicae [8]): 90%; mortality at 4 mg/m2 [6]: 80 to 100%
